One assay deals with T1, USP5 (Homo sapiens, UniProt P45974).
T1 sequence (P45974 1-858): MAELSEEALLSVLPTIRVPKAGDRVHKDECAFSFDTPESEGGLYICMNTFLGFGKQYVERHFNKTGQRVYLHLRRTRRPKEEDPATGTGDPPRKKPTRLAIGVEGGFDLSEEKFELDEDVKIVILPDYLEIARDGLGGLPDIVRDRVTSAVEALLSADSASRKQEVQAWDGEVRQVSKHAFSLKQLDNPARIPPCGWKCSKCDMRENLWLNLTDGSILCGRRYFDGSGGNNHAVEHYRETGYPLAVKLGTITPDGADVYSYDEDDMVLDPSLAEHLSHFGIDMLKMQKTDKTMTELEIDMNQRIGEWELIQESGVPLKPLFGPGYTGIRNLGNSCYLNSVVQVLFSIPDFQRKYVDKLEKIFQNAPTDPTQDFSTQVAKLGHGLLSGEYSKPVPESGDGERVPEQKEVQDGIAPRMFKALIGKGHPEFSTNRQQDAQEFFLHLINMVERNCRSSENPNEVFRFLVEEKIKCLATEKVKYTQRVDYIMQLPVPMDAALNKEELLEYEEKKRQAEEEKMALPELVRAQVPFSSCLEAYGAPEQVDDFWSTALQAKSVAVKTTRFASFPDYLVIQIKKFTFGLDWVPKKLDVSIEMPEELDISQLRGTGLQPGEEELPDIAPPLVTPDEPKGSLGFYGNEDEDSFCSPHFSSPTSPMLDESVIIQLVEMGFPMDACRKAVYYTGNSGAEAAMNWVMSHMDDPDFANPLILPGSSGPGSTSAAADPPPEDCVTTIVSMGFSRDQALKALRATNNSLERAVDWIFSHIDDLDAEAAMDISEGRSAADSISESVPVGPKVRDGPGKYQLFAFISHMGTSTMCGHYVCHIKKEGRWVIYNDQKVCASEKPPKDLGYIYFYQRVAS
Briefly: Ub-Rho110 DUB assay, Table 2, USP5.

Assay [1] relates to colon cancer cell lines RKO and RKO-E6, and cervical cancer cell lines Vibo and SiHA. In words: Incucyte cell proliferation in RKO, RKO-E6, Vibo and SiHA cells (FIG. 15). Format: cell-based. How it is done: 2,500-5,000 cells were seeded in 1-well of a 96-well plate (Corning; 3904). The following day, the media was changed from normal (10%) to low serum (0.5%) containing vehicle (DMSO) or compounds. 16-24 h later FBS was added to each well to bring serum levels back to normal (10%). Cells were then allowed to grow for 2 days. All treatments were done in triplicate. The day after cells were seeded, the media was changed to low serum media containing 2 μM CellEvent Caspase 3/7 reagent (Life Technologies; C10423) and compounds. The plates were placed in an IncuCyte (Essen Bioscience, Inc.) live cell imager and scanning was started 15-20 mins after. IncuCyte™ ZOOM facilitates live-cell monitoring via customized imaging protocols. Images were taken every 2 h for at least 3 days, using a 10× objective. Phase contrast was used to measure cell confluency/density while green fluorescence was used to measure caspase activity. The images were analyzed using IncuCyte software (Basic Analysis parameters) and a ratio of caspase activity to cell density was determined.

A further assay deals with T2, USP47 (Homo sapiens, UniProt Q96K76).
T2 sequence (Q96K76 1-1375): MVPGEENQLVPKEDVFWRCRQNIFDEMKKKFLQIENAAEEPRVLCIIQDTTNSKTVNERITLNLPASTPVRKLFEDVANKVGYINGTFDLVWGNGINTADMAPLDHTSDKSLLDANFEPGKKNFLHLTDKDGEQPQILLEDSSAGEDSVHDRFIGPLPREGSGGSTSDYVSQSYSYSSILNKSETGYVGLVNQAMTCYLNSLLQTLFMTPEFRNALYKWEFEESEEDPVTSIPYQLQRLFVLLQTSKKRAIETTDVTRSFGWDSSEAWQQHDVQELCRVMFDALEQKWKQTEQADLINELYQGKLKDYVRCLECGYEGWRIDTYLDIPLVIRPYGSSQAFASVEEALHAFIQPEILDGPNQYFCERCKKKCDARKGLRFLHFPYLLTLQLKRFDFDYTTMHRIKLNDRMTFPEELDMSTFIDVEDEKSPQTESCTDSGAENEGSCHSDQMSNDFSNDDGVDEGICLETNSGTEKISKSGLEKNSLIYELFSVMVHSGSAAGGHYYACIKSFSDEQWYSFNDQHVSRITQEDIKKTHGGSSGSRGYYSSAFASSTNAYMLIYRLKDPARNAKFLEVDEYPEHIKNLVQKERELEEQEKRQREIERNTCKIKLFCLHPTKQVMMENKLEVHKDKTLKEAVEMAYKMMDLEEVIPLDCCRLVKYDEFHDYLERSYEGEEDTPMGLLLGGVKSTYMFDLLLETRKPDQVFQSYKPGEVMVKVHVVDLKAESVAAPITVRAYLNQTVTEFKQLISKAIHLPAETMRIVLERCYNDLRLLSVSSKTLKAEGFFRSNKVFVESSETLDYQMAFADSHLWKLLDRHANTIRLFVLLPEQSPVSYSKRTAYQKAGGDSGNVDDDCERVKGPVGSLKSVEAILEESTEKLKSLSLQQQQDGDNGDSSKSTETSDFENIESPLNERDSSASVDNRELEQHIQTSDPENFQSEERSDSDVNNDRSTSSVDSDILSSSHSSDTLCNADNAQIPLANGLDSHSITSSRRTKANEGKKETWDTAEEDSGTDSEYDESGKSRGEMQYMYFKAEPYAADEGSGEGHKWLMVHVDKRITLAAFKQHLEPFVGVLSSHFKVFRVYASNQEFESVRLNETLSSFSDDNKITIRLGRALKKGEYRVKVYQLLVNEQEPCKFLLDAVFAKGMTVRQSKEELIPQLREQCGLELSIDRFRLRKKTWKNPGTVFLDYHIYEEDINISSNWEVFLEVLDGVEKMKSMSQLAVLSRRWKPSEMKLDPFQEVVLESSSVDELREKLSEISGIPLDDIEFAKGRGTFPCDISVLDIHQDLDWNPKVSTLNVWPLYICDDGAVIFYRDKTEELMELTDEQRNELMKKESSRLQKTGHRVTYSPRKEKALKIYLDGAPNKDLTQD
In words: Ub-Rho110 DUB assay, Table 2, USP47. The format is biochemical.

Assay [2] relates to p53, p21, MDM2 and E6AP in RKO, RKO-E6, Vibo and SiHA cell lines. Briefly: Western blot in RKO, RKO-E6, Vibo and SiHA cells (FIG. 14A). Format: cell-based. As for the experimental part:
(§1) In 24-well plates, 0.10-0.15×10^6 (adherent) or 0.5×10^6 (suspension) cells were treated with 15 μM or 2.5 μM compounds, respectively, for 24 h in low serum prior to lysis for Western Blot analysis.
(In general: Immunoblotting shows a protein as a band on a membrane.)

Assay [3] concerns MDM2 in MCF7 breast cancer cells. In words: MDM2 turnover in MCF7 cells with cycloheximide (FIG. 3A). The format is cell-based. The settings on record: 15 μM, in the presence of cycloheximide (CHX). As for the experimental part:
In 24-well plates, 0.15×10^6 MCF-7 cells were treated for a total of 8 h with DMSO or compounds (15 μM). During that 8 h, cycloheximide (CHX) was added for the indicated times prior to harvest.

Assay [4] has as its system p53 and p21 in HCT116 colon cancer cell lines. In words: Western blot of p53 and p21 in isogenic HCT116 cell lines (FIG. 2A). The format is cell-based, Human. The settings on record: isogenic HCT116: wild-type, USP7 null. As for the experimental part: as §1

Bounds are passed on as bounds.

For `CCc1c(-c2ccc3cn(C)nc3c2)cnc(N)c1-c1ccc(O)cc1` [Compound 89, 4-[2-amino-4-ethyl-5-(2-methylindazol-6-yl)-3-pyridyl]phenol], the IC50 against USP5 and at USP47 was greater than 200 µM in each case. Further, the “cell viability (Incucyte cell proliferation)” value in assay [1] was “not”. Besides, the “effect on p53, p21, MDM2 and E6AP (western blot)” value in assay [2] is “stabilize p53, p21, and destabilize MDM2 and E6AP”. For the same compound, the “destabilizing effect on MDM2 (western blot)” value in assay [3] is “less active”. Further, in assay [4], the “stabilization of p53 and p21 (western blot)” value is reported as “not”.

As a reminder, the IC50 is the concentration that inhibits the measured activity by half. Read a low IC50 as greater potency in that assay.

Values taken from patent publication US9573899B2, “USP7 inhibitor compounds and methods of use” (Genentech, Inc., priority 2015, dated 2017).
